# Experimental data reported in patent publication US20240358693A1, “METHODS OF TREATING PAIN” (Aisa Pharma, Inc., priority 2023, published 2024).
# Test system: participants with SSc-RP
# Test: Scleroderma Health Assessment Questionnaire (SHAQ): disability indices and visual analog scales
# Format: in vivo, human
# Details: Day 12 vs baseline; PP Population, Part A; SSc patients; sensitivity analysis
# Source text: The standard, validated, patient reported outcome measures tool for SSc patients, the Scleroderma Health Assessment Questionnaire (SHAQ), will be used to assess the participant qualify of life. Details are attached in the Appendix. The participant quality of life will be scored, and a disability index calculated for each questionnaire completed by the patient at Screening and each in-clinic visit. The absolute change in participant quality of life from baseline to the end of each dosing period will be calculated similar to frequency data as before.
# The SHAQ includes a Raynaud's VAS, which will be reported at screening and each in-clinic visit. The absolute change in Raynaud-VAS, assessed by the participants response to the SHAQ question ‘In the past 7 days, how much have your Raynaud's interfered with your daily activities?’ at baseline and the end of each dosing period will be calculated similar to frequency data as before.
# The SHAQ is used to calculate a Disability Index to assess the participant qualify of life. The eight categories assessed by the Disability Index are 1) dressing and grooming, 2) arising, 3) eating, 4) walking, 5) hygiene, 6) reach, 7) grip, and 8) common daily activities. For each of these categories, patients report the amount of difficulty they have in performing two or three specific activities.
# There are four possible responses for the Disability Index questions: • Without any difficulty=0 • With some difficulty=1 • With much difficulty=2 • Unable to do=3. • The highest score reported by the patient for any component question of the eight categories determines the score for that category. • If a component question is left blank or the response is too ambiguous to assign a score, then the score for that category is determined by the remaining completed question(s). • If all component questions are blank or if more than one answer is given, then follow up with the respondent is required. • If the respondent's mark is between the response columns, then move it to the closest one. If it's directly between the two, move it to the higher one.
# Each of the disability items on the SHAQ has a companion aids/devices variable that is used to record what type(s) of assistance, if any, the participant uses for his/her usual activities. These variables (see below) are coded as follows: • 0=No assistance is needed. • 1=A special device is used by the patient in his/her usual activities. • 2=The patient usually needs help from another person. • 3=The patient usually needs BOTH a special device AND help from another person.
# The scoring variables and scoring rules permit the computation of two disability indices, the Standard Disability Index and the Alternative Disability Index.
# This question results in a new set of category scores that are computed by adjusting the score for each category, if necessary, based on the patient's use of an aid or device or assistance for that category. If either devices and/or help from another person are checked for a category, the score is set to “2”, unless the score is already “3” (i.e., scores of “0” or “1” are increased to “2”). For example, if the highest score for the dressing category is “1”, and the patient says they use a device for dressing, the computed category score would be “2”. The sum of the computed categories scores is then calculated and divided by the number of categories answered. This gives a score in the 0 to 3 range.
# The aid and device variables are not used to calculate the alternative disability index; it is calculated by adding the scores for each of the categories and dividing by the number of categories answered. This gives a score in the 0 to 3 range.
# The standard, validated, patient reported outcome measures tool for SSc patients, the SHAQ, was collected at the time points specified in the study schedules (FIG. 2 and FIGS. 4A and 4B) to assess the participant's quality of life. The SHAQ included a Raynaud's VAS that will also be reported separately.
smiles,measurement,value
COCCOC(=O)C1=C(C)NC(C)=C(C(=O)OC/C=C/c2ccccc2)C1c1cccc([N+](=O)[O-])c1 (stereo not drawn) [Pooled Cilnidipine],"SHAQ Alternative Disability Index, Change from Baseline, Max",0.38
same,"SHAQ Alternative Disability Index, Change from Baseline, Mean",0.031
same,"SHAQ Alternative Disability Index, Change from Baseline, Median",0.000
same,"SHAQ Alternative Disability Index, Change from Baseline, Min",−0.13
same,"SHAQ Alternative Disability Index, Change from Baseline, Q1",−0.125
same,"SHAQ Alternative Disability Index, Change from Baseline, Q3",0.125
same,"SHAQ Alternative Disability Index, Percent Change from Baseline, Max",100.0%
same,"SHAQ Alternative Disability Index, Percent Change from Baseline, Mean",9.68%
same,"SHAQ Alternative Disability Index, Percent Change from Baseline, Median",−11.11%
same,"SHAQ Alternative Disability Index, Percent Change from Baseline, Min",−50.0%
same,"SHAQ Alternative Disability Index, Percent Change from Baseline, Q1",−33.33%
same,"SHAQ Alternative Disability Index, Percent Change from Baseline, Q3",42.86%
same,"SHAQ Visual Analogue Scale - Finger Ulcers, Change from Baseline, Max",0.40
same,"SHAQ Visual Analogue Scale - Finger Ulcers, Change from Baseline, Mean",−0.643
same,"SHAQ Visual Analogue Scale - Finger Ulcers, Change from Baseline, Median",0.000
same,"SHAQ Visual Analogue Scale - Finger Ulcers, Change from Baseline, Min",−3.20
same,"SHAQ Visual Analogue Scale - Finger Ulcers, Change from Baseline, Q1",−1.000
same,"SHAQ Visual Analogue Scale - Finger Ulcers, Change from Baseline, Q3",0.000
same,"SHAQ Visual Analogue Scale - Finger Ulcers, Percent Change from Baseline, Max",133.3%
same,"SHAQ Visual Analogue Scale - Finger Ulcers, Percent Change from Baseline, Mean",−17.08%
same,"SHAQ Visual Analogue Scale - Finger Ulcers, Percent Change from Baseline, Median",−50.82%
same,"SHAQ Visual Analogue Scale - Finger Ulcers, Percent Change from Baseline, Min",−100.0%
same,"SHAQ Visual Analogue Scale - Finger Ulcers, Percent Change from Baseline, Q1",−81.37%
same,"SHAQ Visual Analogue Scale - Finger Ulcers, Percent Change from Baseline, Q3",47.22%
same,"SHAQ Visual Analogue Scale - Intestinal Problems, Change from Baseline, Max",0.60
same,"SHAQ Visual Analogue Scale - Intestinal Problems, Change from Baseline, Mean",−0.863
same,"SHAQ Visual Analogue Scale - Intestinal Problems, Change from Baseline, Median",−0.050
same,"SHAQ Visual Analogue Scale - Intestinal Problems, Change from Baseline, Min",−4.40
same,"SHAQ Visual Analogue Scale - Intestinal Problems, Change from Baseline, Q1",−1.650
same,"SHAQ Visual Analogue Scale - Intestinal Problems, Change from Baseline, Q3",0.150
same,"SHAQ Visual Analogue Scale - Intestinal Problems, Percent Change from Baseline, Max",40.0%
same,"SHAQ Visual Analogue Scale - Intestinal Problems, Percent Change from Baseline, Mean",−43.69%
same,"SHAQ Visual Analogue Scale - Intestinal Problems, Percent Change from Baseline, Median",−66.06%
same,"SHAQ Visual Analogue Scale - Intestinal Problems, Percent Change from Baseline, Min",−100.0%
same,"SHAQ Visual Analogue Scale - Intestinal Problems, Percent Change from Baseline, Q1",−100.00%
same,"SHAQ Visual Analogue Scale - Intestinal Problems, Percent Change from Baseline, Q3",30.00%
same,"SHAQ Visual Analogue Scale - Overall Disease Severity, Change from Baseline, Max",0.20
same,"SHAQ Visual Analogue Scale - Overall Disease Severity, Change from Baseline, Mean",−1.450
same,"SHAQ Visual Analogue Scale - Overall Disease Severity, Change from Baseline, Median",−1.550
same,"SHAQ Visual Analogue Scale - Overall Disease Severity, Change from Baseline, Min",−3.10
same,"SHAQ Visual Analogue Scale - Overall Disease Severity, Change from Baseline, Q1",−1.850
same,"SHAQ Visual Analogue Scale - Overall Disease Severity, Change from Baseline, Q3",−0.950
same,"SHAQ Visual Analogue Scale - Overall Disease Severity, Percent Change from Baseline, Max",−26.8%
same,"SHAQ Visual Analogue Scale - Overall Disease Severity, Percent Change from Baseline, Mean",−61.10%
same,"SHAQ Visual Analogue Scale - Overall Disease Severity, Percent Change from Baseline, Median",−60.00%
same,"SHAQ Visual Analogue Scale - Overall Disease Severity, Percent Change from Baseline, Min",−100.0%
same,"SHAQ Visual Analogue Scale - Overall Disease Severity, Percent Change from Baseline, Q1",−76.19%
same,"SHAQ Visual Analogue Scale - Overall Disease Severity, Percent Change from Baseline, Q3",−44.12%
same,"SHAQ Visual Analogue Scale - Pain, Change from Baseline, Max",0.70
same,"SHAQ Visual Analogue Scale - Pain, Change from Baseline, Mean",−0.375
same,"SHAQ Visual Analogue Scale - Pain, Change from Baseline, Median",−0.250
same,"SHAQ Visual Analogue Scale - Pain, Change from Baseline, Min",−2.00
same,"SHAQ Visual Analogue Scale - Pain, Change from Baseline, Q1",−0.750
same,"SHAQ Visual Analogue Scale - Pain, Change from Baseline, Q3",0.150
same,"SHAQ Visual Analogue Scale - Pain, Percent Change from Baseline, Max",19.4%
same,"SHAQ Visual Analogue Scale - Pain, Percent Change from Baseline, Mean",−23.98%
same,"SHAQ Visual Analogue Scale - Pain, Percent Change from Baseline, Median",−41.18%
same,"SHAQ Visual Analogue Scale - Pain, Percent Change from Baseline, Min",−55.6%
same,"SHAQ Visual Analogue Scale - Pain, Percent Change from Baseline, Q1",−53.33%
same,"SHAQ Visual Analogue Scale - Pain, Percent Change from Baseline, Q3",11.54%
same,"SHAQ Visual Analogue Scale - Raynaud’s, Change from Baseline, Max",1.50
same,"SHAQ Visual Analogue Scale - Raynaud’s, Change from Baseline, Mean",−0.438
same,"SHAQ Visual Analogue Scale - Raynaud’s, Change from Baseline, Median",−0.600
